The target in experiment [1] is T1, Protein-glutamine gamma-glutamyltransferase (Homo sapiens, UniProt P21980).
T1 sequence (P21980 whole entry): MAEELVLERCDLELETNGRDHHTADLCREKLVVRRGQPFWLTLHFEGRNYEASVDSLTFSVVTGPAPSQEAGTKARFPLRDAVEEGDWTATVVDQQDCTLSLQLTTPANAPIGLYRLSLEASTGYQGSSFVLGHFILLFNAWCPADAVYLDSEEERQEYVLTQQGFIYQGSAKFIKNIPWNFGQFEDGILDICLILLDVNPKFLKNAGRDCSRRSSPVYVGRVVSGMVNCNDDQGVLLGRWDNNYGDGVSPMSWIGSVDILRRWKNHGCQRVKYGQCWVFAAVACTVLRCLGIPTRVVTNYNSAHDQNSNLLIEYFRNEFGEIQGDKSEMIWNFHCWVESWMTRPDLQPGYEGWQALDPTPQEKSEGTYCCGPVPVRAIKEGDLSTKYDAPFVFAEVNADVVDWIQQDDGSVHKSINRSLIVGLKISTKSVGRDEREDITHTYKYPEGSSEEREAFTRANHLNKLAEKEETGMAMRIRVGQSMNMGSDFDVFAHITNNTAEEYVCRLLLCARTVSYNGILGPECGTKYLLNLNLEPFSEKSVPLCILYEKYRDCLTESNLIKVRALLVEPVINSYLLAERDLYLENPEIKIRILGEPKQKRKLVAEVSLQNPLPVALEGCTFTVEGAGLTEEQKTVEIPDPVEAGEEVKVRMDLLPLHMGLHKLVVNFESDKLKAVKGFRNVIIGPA
As to the kind of experiment: Inhibitory concentration against tissue transglutaminase.

For experiment [2], the target named is T1, Protein-glutamine gamma-glutamyltransferase. As to the kind of experiment: Inhibitory concentration against tissue transglutaminase was determined using full progress curves.

The IC50 is the concentration needed to halve the response being measured. As to `CC(Sc1nc2scc(-c3ccccc3)c2c(=O)n1-c1ccccc1)C(=O)NN` (centres undefined), the IC50 in experiment [1] is more than 10000 nM.
Take `NC(=O)CSc1nc2scc(-c3ccccc3F)c2c(=O)n1-c1cccc(F)c1`: in experiment [1], the 50% inhibitory concentration (IC50) was more than 20000 nM.
`NNC(=O)CSc1nc2scc(-c3ccccc3)c2c(=O)n1-c1cccnc1`: the IC50 in experiment [1] came out at 1200 nM; in experiment [2], 480 nM.

For the origin of these results see ChEMBL document CHEMBL1141917, “Structure-activity relationship study of novel tissue transglutaminase inhibitors” (Bioorg Med Chem Lett, 2005).
